Each structure is given as a SMILES string.

Test [1] addresses Serine/threonine-protein kinase 24 (Homo sapiens) (UniProt Q9Y6E0). In words: Selectivity interaction (Upstate Kinase Profiler service (Millipore)) EUB0000056c STK24. The following applies: at 1 µM.
The target of test [2] is Interleukin-1 receptor-associated kinase 1 (Homo sapiens) (UniProt P51617). Description: Selectivity interaction (ProQinase) EUB0000171b IRAK1.
The test system of test [3] is Tyrosine-protein kinase ABL1 (Homo sapiens), P00519 [T315I]. The following applies: at 10 µM.
The target in test [4] is Cyclin-dependent kinase 9 (Homo sapiens, UniProt P50750). In words: Selectivity interaction (SelectScreen Kinase Profiling (Thermo Fisher Scientific)) EUB0001558a CDK9. The following applies: at 1 µM.
Test [5] addresses Ribosomal protein S6 kinase alpha-2 (Homo sapiens) (UniProt Q15349). Description: Selectivity interaction (KinomeScan (DiscoverX)) EUB0001079a RPS6KA2. The note with it: at 1 µM.
Test [6] deals with T1, Phosphatidylinositol 4,5-bisphosphate 3-kinase catalytic subunit delta isoform (Homo sapiens) (UniProt O00329).
T1 sequence (whole entry): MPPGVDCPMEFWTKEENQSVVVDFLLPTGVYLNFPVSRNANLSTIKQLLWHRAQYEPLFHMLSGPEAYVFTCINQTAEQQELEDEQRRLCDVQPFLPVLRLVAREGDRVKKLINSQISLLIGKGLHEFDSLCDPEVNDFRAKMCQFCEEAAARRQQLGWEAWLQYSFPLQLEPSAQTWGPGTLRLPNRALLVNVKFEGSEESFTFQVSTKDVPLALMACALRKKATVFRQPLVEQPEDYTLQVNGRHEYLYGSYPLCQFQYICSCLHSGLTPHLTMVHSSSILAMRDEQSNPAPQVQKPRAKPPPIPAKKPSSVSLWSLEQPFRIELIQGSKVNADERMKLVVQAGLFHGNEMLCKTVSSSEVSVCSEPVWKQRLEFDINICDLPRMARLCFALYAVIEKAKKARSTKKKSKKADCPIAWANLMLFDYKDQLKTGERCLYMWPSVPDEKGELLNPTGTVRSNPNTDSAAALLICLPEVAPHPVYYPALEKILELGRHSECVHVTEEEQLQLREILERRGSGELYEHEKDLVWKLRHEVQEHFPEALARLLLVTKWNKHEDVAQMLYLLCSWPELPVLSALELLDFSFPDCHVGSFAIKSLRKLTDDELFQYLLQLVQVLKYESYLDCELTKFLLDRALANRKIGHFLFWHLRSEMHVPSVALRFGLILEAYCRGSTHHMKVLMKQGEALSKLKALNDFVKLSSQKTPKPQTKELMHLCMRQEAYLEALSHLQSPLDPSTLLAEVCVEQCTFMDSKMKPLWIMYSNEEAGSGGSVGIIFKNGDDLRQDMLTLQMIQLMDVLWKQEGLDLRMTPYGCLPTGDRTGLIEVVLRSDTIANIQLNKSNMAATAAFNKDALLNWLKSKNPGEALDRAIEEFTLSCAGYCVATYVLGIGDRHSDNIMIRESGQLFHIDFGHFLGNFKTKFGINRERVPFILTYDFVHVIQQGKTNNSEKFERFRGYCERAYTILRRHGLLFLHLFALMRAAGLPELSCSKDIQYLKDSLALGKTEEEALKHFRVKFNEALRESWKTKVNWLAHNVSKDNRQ
In words: Selectivity interaction (KinomeScan (DiscoverX)) EUB0001049a PIK3CD. The following applies: at 1 µM.

In test [7] the target is T2, Mitogen-activated protein kinase kinase kinase 19 (Homo sapiens) (UniProt Q56UN5).
T2 sequence (whole entry): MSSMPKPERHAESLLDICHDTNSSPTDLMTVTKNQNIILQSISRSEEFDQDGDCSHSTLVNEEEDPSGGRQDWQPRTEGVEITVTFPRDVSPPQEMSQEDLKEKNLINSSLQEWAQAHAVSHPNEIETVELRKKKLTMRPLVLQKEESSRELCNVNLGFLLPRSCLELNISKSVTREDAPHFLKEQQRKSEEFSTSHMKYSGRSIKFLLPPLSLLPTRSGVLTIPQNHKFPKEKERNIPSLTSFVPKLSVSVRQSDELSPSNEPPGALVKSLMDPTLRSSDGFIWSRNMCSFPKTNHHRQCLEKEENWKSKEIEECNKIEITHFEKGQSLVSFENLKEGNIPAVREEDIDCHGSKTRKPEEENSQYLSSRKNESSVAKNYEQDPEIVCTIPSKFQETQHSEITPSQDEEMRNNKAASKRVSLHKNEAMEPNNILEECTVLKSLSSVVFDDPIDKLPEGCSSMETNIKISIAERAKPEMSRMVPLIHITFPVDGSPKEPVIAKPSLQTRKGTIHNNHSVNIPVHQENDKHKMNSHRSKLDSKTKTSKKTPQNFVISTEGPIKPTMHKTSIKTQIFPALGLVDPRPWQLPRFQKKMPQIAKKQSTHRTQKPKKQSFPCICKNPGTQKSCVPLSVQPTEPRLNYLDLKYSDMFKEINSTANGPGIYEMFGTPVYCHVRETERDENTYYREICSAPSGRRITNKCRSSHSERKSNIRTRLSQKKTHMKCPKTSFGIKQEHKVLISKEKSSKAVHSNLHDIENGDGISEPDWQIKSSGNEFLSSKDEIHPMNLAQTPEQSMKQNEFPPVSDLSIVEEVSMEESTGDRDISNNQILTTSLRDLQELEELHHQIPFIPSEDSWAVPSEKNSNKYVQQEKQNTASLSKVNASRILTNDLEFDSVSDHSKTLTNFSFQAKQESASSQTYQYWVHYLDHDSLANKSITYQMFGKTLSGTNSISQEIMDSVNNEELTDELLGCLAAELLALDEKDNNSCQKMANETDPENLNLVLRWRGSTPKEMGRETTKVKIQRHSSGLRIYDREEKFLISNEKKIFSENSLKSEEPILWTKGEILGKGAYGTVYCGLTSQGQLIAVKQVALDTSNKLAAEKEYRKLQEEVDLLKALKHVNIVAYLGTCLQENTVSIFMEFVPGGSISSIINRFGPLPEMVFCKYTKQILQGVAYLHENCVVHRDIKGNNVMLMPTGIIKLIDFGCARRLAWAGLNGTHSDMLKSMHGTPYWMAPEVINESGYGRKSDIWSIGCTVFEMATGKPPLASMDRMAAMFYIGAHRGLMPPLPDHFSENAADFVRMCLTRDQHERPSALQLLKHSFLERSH
Description: Selectivity interaction (KinomeScan (DiscoverX)) EUB0001550a MAP3K19. The note with it: at 1 µM.

Test [8] has as its target Calcium/calmodulin-dependent protein kinase kinase 1 (Homo sapiens) (UniProt Q8N5S9). Description: Selectivity interaction (Kinase panel (Invitrogen)) EUB0000639a CAMKK1. The following applies: at 200 nM.
Test [9] deals with Casein kinase I isoform gamma-1 (Homo sapiens) (UniProt Q9HCP0). Description: Selectivity interaction (KinomeScan (DiscoverX)) EUB0000229b CSNK1G1. The note with it: at 10 µM.
The target in test [10] is Myosin light chain kinase 2, skeletal/cardiac muscle (Homo sapiens) (UniProt Q9H1R3). In words: Selectivity interaction (KinomeScan (DiscoverX)) EUB0000229b MYLK2. The following applies: at 10 µM.
Test [11] deals with Cyclin-dependent kinase 18 (Homo sapiens) (UniProt Q07002). Description: Selectivity interaction (KinomeScan (DiscoverX)) EUB0001619a CDK18. The following applies: at 1 µM.
Cyclin-dependent kinase 18 (Homo sapiens), sequence (Q07002 whole entry): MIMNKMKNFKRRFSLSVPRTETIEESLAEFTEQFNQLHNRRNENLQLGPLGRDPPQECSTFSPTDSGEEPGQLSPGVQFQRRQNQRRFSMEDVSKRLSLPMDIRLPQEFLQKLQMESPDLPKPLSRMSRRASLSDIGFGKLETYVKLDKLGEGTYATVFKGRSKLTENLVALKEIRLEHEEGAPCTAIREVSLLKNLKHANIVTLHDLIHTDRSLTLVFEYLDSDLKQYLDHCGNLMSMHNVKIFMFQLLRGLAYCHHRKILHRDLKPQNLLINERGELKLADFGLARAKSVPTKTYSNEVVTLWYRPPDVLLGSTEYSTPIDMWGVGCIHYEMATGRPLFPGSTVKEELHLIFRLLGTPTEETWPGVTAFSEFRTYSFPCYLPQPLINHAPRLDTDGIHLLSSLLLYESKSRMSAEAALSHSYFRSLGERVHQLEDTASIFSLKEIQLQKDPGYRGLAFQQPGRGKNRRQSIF

Interleukin-1 receptor-associated kinase 1 (Homo sapiens), sequence (P51617 whole entry, looked up): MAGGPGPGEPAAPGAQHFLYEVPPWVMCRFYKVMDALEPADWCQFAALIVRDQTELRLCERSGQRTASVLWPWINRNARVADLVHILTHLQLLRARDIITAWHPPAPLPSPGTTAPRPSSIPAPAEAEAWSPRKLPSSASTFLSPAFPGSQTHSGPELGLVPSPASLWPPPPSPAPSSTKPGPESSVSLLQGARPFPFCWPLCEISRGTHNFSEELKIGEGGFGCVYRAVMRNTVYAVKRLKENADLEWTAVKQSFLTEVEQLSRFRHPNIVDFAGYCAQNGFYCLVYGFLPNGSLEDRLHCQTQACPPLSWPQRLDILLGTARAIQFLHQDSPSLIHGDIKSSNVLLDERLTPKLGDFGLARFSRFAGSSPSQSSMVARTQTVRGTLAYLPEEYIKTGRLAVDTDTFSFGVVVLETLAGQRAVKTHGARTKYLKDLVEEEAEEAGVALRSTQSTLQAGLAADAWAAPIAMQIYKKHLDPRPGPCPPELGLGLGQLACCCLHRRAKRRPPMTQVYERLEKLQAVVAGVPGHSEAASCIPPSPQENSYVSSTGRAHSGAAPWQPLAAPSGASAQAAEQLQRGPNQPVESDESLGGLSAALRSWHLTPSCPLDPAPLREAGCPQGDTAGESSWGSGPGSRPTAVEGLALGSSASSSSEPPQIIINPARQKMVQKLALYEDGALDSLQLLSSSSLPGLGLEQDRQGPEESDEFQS
Myosin light chain kinase 2, skeletal/cardiac muscle (Homo sapiens), sequence (Q9H1R3 whole entry): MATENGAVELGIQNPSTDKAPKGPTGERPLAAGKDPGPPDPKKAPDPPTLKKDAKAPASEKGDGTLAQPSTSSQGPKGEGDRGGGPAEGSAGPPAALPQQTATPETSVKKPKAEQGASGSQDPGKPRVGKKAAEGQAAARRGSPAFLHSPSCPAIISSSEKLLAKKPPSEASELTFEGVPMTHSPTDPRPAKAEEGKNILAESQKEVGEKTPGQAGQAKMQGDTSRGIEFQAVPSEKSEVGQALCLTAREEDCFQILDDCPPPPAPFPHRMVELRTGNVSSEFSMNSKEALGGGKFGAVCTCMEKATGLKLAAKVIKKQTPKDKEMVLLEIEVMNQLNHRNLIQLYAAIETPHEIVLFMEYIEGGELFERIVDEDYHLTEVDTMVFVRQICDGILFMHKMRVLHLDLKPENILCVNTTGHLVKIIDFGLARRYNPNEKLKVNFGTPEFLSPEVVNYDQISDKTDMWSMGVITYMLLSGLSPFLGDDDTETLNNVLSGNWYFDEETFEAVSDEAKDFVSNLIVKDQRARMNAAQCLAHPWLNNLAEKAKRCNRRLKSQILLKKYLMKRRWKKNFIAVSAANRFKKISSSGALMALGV
Cyclin-dependent kinase 9, sequence (P50750 whole entry): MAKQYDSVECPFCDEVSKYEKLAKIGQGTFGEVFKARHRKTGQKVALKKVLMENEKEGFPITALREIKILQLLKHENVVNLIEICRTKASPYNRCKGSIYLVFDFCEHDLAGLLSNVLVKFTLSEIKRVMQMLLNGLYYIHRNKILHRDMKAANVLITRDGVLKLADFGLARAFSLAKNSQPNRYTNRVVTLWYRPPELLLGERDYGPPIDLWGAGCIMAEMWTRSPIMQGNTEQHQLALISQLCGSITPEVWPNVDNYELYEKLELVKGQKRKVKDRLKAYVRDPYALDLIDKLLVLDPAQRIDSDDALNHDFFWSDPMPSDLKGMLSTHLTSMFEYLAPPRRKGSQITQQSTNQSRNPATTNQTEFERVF
Serine/threonine-protein kinase 24 (Homo sapiens), sequence (Q9Y6E0 whole entry, looked up): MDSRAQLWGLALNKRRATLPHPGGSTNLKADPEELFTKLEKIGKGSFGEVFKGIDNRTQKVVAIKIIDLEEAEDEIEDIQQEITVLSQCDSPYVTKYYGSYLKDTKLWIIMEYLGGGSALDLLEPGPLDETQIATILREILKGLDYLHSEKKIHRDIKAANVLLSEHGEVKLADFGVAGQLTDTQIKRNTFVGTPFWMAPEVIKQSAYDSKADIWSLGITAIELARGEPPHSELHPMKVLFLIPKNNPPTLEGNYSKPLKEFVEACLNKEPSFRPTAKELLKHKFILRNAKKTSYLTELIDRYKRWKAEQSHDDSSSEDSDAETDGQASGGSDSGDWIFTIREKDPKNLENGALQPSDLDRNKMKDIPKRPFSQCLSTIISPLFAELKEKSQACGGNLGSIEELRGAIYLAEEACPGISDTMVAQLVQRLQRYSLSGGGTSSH
Calcium/calmodulin-dependent protein kinase kinase 1 (Homo sapiens), sequence (Q8N5S9 whole entry, looked up, canonical isoform): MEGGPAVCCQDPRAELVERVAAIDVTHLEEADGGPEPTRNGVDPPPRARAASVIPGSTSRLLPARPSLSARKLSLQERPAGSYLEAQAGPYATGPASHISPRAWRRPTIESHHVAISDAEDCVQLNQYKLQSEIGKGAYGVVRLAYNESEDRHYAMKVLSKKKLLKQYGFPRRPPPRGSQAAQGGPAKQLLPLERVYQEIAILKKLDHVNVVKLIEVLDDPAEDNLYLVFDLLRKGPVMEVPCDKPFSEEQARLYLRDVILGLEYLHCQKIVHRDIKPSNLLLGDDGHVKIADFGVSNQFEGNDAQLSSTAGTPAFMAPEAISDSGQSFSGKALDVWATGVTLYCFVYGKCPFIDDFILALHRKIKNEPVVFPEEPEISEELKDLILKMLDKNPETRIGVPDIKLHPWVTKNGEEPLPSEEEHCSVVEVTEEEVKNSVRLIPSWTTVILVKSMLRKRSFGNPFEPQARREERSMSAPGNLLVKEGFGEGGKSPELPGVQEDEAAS
Ribosomal protein S6 kinase alpha-2 (Homo sapiens), sequence (Q15349 whole entry, canonical isoform): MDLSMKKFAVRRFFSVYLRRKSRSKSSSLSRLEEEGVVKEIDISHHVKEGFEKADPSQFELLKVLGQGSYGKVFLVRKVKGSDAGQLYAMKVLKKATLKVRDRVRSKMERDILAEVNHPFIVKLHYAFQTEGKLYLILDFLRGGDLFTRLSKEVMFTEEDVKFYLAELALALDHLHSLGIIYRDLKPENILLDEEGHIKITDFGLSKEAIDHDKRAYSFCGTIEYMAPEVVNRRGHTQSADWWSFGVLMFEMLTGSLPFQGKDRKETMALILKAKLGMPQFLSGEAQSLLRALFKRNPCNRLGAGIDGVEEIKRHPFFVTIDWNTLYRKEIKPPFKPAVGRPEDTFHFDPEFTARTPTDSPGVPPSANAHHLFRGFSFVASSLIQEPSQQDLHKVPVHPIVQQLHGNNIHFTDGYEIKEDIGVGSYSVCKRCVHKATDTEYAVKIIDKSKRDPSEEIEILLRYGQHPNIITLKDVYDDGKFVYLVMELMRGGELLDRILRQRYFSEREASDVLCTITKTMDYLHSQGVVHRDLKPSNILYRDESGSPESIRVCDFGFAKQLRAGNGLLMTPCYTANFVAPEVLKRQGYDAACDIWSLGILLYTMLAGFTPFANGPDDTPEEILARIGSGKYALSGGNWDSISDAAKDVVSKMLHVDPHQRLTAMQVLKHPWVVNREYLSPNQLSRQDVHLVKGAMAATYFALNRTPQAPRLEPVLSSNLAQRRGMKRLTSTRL
Casein kinase I isoform gamma-1 (Homo sapiens), sequence (Q9HCP0 whole entry, looked up, canonical isoform): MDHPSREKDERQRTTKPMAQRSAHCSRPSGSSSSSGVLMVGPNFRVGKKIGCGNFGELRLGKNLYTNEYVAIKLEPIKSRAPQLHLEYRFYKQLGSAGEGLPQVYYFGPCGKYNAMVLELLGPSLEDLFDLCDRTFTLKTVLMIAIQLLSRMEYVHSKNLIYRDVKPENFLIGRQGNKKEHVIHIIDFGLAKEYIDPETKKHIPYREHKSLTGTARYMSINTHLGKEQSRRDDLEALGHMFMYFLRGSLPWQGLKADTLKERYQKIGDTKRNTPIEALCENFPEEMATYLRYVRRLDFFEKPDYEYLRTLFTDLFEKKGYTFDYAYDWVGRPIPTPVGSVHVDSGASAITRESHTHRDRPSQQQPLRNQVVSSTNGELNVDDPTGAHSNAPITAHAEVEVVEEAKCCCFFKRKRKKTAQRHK

Regarding `Cc1ccc(-c2ccc3c(ccc4sc5c(c43)NC[C@@H](C)NC5=O)n2)cn1`, the % of inhibition in [1] is 33%. For `C=CC(=O)Nc1cccc(C(=O)Nc2ccc(Nc3cc(-c4[nH]c(SC)nc4C)ccn3)cc2)c1`, the % of control was found to be 50% in test [2] (at 1 µM) and 11% in [2] (at 5 µM). Take `Cc1cc([C@@H](C)Nc2ccccc2C(=O)O)c2nc(N3CCOCC3)cc(=O)n2c1` [AZD-6482]: in test [3], the % of control worked out at 70%. Take `CC(C)(O)[C@H](F)CN1Cc2cc(NC(=O)c3cnn4cccnc34)c(N3CCOCC3)cc2C1=O`: the % of inhibition in test [4] stood at 74.5%. In turn, `Nc1cnc(N2CCc3cc(S(=O)(=O)Nc4c(F)cc(Cl)cc4F)cc(N4CCCC4=O)c32)nc1` [TP-020n] displayed a % of control in [5] of 100%. In [6], `COc1cc(Nc2nc(C)cc(-c3cnn4nc(OC)ccc34)n2)cc(C(F)(F)F)c1` returned a % of control of 88%. As to `CN(C)CC#Cc1ccc2[nH]c3c(c2c1)-c1nc(N)ncc1CCC3`, the % of control in test [7] worked out at 9.9%.

For `CC[C@@H]1[C@H](F)C(=O)N[C@@H]1COc1nccc2cc(C(N)=O)c(OC)cc12` [ZIMLOVISERTIB], in test [8], the % of inhibition was 2.23%. Regarding `COc1cc(N(C)c2ccnc3ccc(C(F)(F)F)cc23)cc(OC)c1OC`, the % binding in test [9] is 76%; in test [10], 75%. The compound `N#Cc1cccc(-c2c[nH]c3ncnc(N4CCOCC4)c23)c1` displayed a % of control in [11] of 100%.

(Values after ChEMBL document CHEMBL5465560, “Selectivity Literature for EUbOPEN Chemogenomic Library” (2024).)
